Laboratory results taken from patent US7138361B2, “Herbicidal heterocycles” (E. I. du Pont de Nemours and Company, priority 2000, dated 2006).

Tests used:
Type in all cases: in vivo
[1] = tested on: Surinam grass (Brachiaria decumbens); experiment: Test B postemergence; conditions: 13 to 15 days
In short: (§1)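 Preemergence: seeds planted and treated with test chemicals in non-phytotoxic solvent with surfactant; postemergence on plants 2–18 cm (1- to 4-leaf stage). Kept in greenhouse 13–15 days, then visually rated against controls on a 0 (no effect) to 100 (complete control) scale.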

[2] = tested on: barnyardgrass (Echinochloa crus-galli); experiment: Test B postemergence; conditions: 13 to 15 days
In short: as §1

[3] = tested on: blackgrass (Alopecurus myosuroides); experiment: Test B postemergence; conditions: 13 to 15 days
In short: as §1

[4] = tested on: cocklebur (Xanthium strumarium); experiment: Test B postemergence; conditions: 13 to 15 days
In short: as §1

[5] = tested on: corn (Zea mays); experiment: Test B postemergence; conditions: 13 to 15 days
In short: as §1

[6] = tested on: crabgrass (Digitaria sanguinalis); experiment: Test B postemergence; conditions: 13 to 15 days
In short: as §1

[7] = tested on: giant foxtail (Setaria faberii); experiment: Test B postemergence; conditions: 13 to 15 days
In short: as §1

[8] = tested on: lambsquarters (Chenopodium album); experiment: Test B postemergence; conditions: 13 to 15 days
In short: as §1

[9] = tested on: morning glory (Ipomoea hederacea); experiment: Test B postemergence; conditions: 13 to 15 days
In short: as §1

[10] = tested on: pigweed (Amaranthus retroflexus); experiment: Test B postemergence; conditions: 13 to 15 days
In short: as §1

[11] = tested on: velvetleaf (Abutilon theophrasti); experiment: Test B postemergence; conditions: 13 to 15 days
In short: as §1

[12] = tested on: wheat (Triticum aestivum); experiment: Test B postemergence; conditions: 13 to 15 days
In short: as §1

[13] = tested on: wild oat (Avena fatua); experiment: Test B postemergence; conditions: 13 to 15 days
In short: as §1

[14] = tested on: Surinam grass (Brachiaria decumbens); experiment: Test B preemergence; conditions: scale 0 to 100, 0 no effect, 100 complete control
In short: as §1

[15] = tested on: barnyardgrass (Echinochloa crus-galli); experiment: Test B preemergence; conditions: scale 0 to 100, 0 no effect, 100 complete control
In short: as §1

[16] = tested on: cocklebur (Xanthium strumarium); experiment: Test B preemergence; conditions: scale 0 to 100, 0 no effect, 100 complete control
In short: as §1

[17] = tested on: corn (Zea mays); experiment: Test B preemergence; conditions: scale 0 to 100, 0 no effect, 100 complete control
In short: as §1

[18] = tested on: crabgrass (Digitaria sanguinalis); experiment: Test B preemergence; conditions: scale 0 to 100, 0 no effect, 100 complete control
In short: as §1

[19] = tested on: giant foxtail (Setaria faberii); experiment: Test B preemergence; conditions: scale 0 to 100, 0 no effect, 100 complete control
In short: as §1

[20] = tested on: lambsquarters (Chenopodium album); experiment: Test B preemergence; conditions: scale 0 to 100, 0 no effect, 100 complete control
In short: as §1

[21] = tested on: morning glory (Ipomoea hederacea); experiment: Test B preemergence; conditions: scale 0 to 100, 0 no effect, 100 complete control
In short: as §1

[22] = tested on: pigweed (Amaranthus retroflexus); experiment: Test B preemergence; conditions: scale 0 to 100, 0 no effect, 100 complete control
In short: as §1

[23] = tested on: rice (Oryza saliva); experiment: Test B preemergence; conditions: scale 0 to 100, 0 no effect, 100 complete control
In short: as §1

[24] = tested on: velvetleaf (Abutilon theophrasti); experiment: Test B preemergence; conditions: scale 0 to 100, 0 no effect, 100 complete control
In short: as §1

[25] = tested on: smallflower flatsedge (Cyperus difformis); experiment: Test C flooded paddy test; conditions: for Flatsedge plant response rating: Flooded Paddy, scale 0 to 100, 0 no effect, 100 complete control; for Plant response rating, Flatsedge: flooded paddy test, scale 0 to 100 (0 no effect, 100 complete control)
In short: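 Plants were grown to the 2-leaf stage under flooded paddy conditions and treated. They were then kept in a greenhouse for 12 to 14 days and visually rated against untreated controls on a 0–100 scale, where 0 is no effect and 100 is complete control.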

[26] = tested on: Sunflower; experiment: Test C preemergence; conditions: Rate 250 g/ha, visual evaluation after 12 to 14 days
[27] = tested on: Sunflower; experiment: Test C preemergence; conditions: Rate 125 g/ha, scale 0 to 100, 0 no effect, 100 complete control
[28] = Rate 125 g/ha, scale 0 (no effect) to 100 (complete control)
[29] = Rate 500 g/ha, scale 0 to 100, 0 is no effect, 100 is complete control

## CCC(CC)c1ccn(C2SCN(c3cccc(C(F)(F)F)c3)C2=O)n1 (stereo not drawn) [Compound 25]
[1]; [28]
  Plant response rating, Surinam grass: 0
[1]; [29]
  Plant response rating, Surinam grass: 40
[2]; [28]
  Plant response rating, Barnyardgrass: 100
[2]; [29]
  Plant response rating, Barnyardgrass: 100
[3]; [28]
  Plant response rating, Blackgrass: 0
[3]; [29]
  Plant response rating, Blackgrass: 0
[4]; [28]
  Plant response rating, Cocklebur: 60
[4]; [29]
  Plant response rating, Cocklebur: 70
[5]; [28]
  Plant response rating, Corn: 0
[5]; [29]
  Plant response rating, Corn: 60
[6]; [28]
  Plant response rating, Crabgrass: 60
[6]; [29]
  Plant response rating, Crabgrass: 90
[7]; [28]
  Plant response rating, Foxtail, Giant: 20
[7]; [29]
  Plant response rating, Foxtail, Giant: 80
[8]; [28]
  Plant response rating, Lambsquarters: 100
[8]; [29]
  Plant response rating, Lambsquarters: 100
[9]; [28]
  Plant response rating, Morningglory: 90
[9]; [29]
  Plant response rating, Morningglory: 100
[10]; [28]
  Plant response rating, Pigweed: 70
[10]; [29]
  Plant response rating, Pigweed: 100
[11]; [28]
  Plant response rating, Velvetleaf: 0
[11]; [29]
  Plant response rating, Velvetleaf: 20
[12]; [28]
  Plant response rating, Wheat: 0
[12]; [29]
  Plant response rating, Wheat: 0
[13]; [28]
  Plant response rating, Wild Oat: 0
[13]; [29]
  Plant response rating, Wild Oat: 0
[14]; Preemergence, Rate 500 g/ha
  Plant response rating, Surinam grass: 80
[14]; preemergence, Rate 125 g/ha
  Plant response rating, Surinam grass: 80
[15]; Preemergence, Rate 500 g/ha
  Plant response rating, Barnyardgrass: 100
[15]; preemergence, Rate 125 g/ha
  Plant response rating, Barnyardgrass: 100
[16]; Preemergence, Rate 500 g/ha
  Plant response rating, Cocklebur: 0
[16]; preemergence, Rate 125 g/ha
  Plant response rating, Cocklebur: 0
[17]; Preemergence, Rate 500 g/ha
  Plant response rating, Corn: 0
[17]; preemergence, Rate 125 g/ha
  Plant response rating, Corn: 0
[18]; Preemergence, Rate 500 g/ha
  Plant response rating, Crabgrass: 100
[18]; preemergence, Rate 125 g/ha
  Plant response rating, Crabgrass: 100
[19]; Preemergence, Rate 500 g/ha
  Plant response rating, Foxtail, Giant: 100
[19]; preemergence, Rate 125 g/ha
  Plant response rating, Foxtail, Giant: 100
[20]; Preemergence, Rate 500 g/ha
  Plant response rating, Lambsquarters: 100
[20]; preemergence, Rate 125 g/ha
  Plant response rating, Lambsquarters: 100
[21]; Preemergence, Rate 500 g/ha
  Plant response rating, Morningglory: 90
[21]; preemergence, Rate 125 g/ha
  Plant response rating, Morningglory: 0
[22]; Preemergence, Rate 500 g/ha
  Plant response rating, Pigweed: 100
[22]; preemergence, Rate 125 g/ha
  Plant response rating, Pigweed: 100
[23]; Preemergence, Rate 500 g/ha
  Plant response rating, Rice: 0
[23]; preemergence, Rate 125 g/ha
  Plant response rating, Rice: 0
[24]; Preemergence, Rate 500 g/ha
  Plant response rating, Velvetleaf: 0
[24]; preemergence, Rate 125 g/ha
  Plant response rating, Velvetleaf: 0
[25]; Rate 250 g/ha
  Flatsedge plant response rating: 100
[25]; Rate 500 g/ha
  Flatsedge plant response rating: 100
[25]; Rate 62 g/ha
  Plant response rating, Flatsedge: 100
[25]; Rate 125 g/ha
  Plant response rating, Flatsedge: 100
[26]
  Plant response rating (0 to 100), Sunflower: 70
[27]
  Plant response rating, Sunflower: 40

## CC(C)(C)c1ccn(C2CCN(c3cccc(Br)c3)C2=O)n1 (stereo not drawn) [Compound 33]
[1]; [28]
  Plant response rating, Surinam grass: 0
[1]; [29]
  Plant response rating, Surinam grass: 0
[2]; [28]
  Plant response rating, Barnyardgrass: 0
[2]; [29]
  Plant response rating, Barnyardgrass: 0
[3]; [28]
  Plant response rating, Blackgrass: 0
[3]; [29]
  Plant response rating, Blackgrass: 0
[4]; [28]
  Plant response rating, Cocklebur: 0
[4]; [29]
  Plant response rating, Cocklebur: 10
[5]; [28]
  Plant response rating, Corn: 0
[5]; [29]
  Plant response rating, Corn: 0
[6]; [28]
  Plant response rating, Crabgrass: 0
[6]; [29]
  Plant response rating, Crabgrass: 0
[7]; [28]
  Plant response rating, Foxtail, Giant: 0
[7]; [29]
  Plant response rating, Foxtail, Giant: 20
[8]; [28]
  Plant response rating, Lambsquarters: 70
[8]; [29]
  Plant response rating, Lambsquarters: 80
[9]; [28]
  Plant response rating, Morningglory: 0
[9]; [29]
  Plant response rating, Morningglory: 10
[10]; [28]
  Plant response rating, Pigweed: 70
[10]; [29]
  Plant response rating, Pigweed: 80
[11]; [28]
  Plant response rating, Velvetleaf: 0
[11]; [29]
  Plant response rating, Velvetleaf: 0
[12]; [28]
  Plant response rating, Wheat: 0
[12]; [29]
  Plant response rating, Wheat: 0
[13]; [28]
  Plant response rating, Wild Oat: 0
[13]; [29]
  Plant response rating, Wild Oat: 0
[14]; Preemergence, Rate 500 g/ha
  Plant response rating, Surinam grass: 60
[14]; preemergence, Rate 125 g/ha
  Plant response rating, Surinam grass: 30
[15]; Preemergence, Rate 500 g/ha
  Plant response rating, Barnyardgrass: 80
[15]; preemergence, Rate 125 g/ha
  Plant response rating, Barnyardgrass: 30
[16]; preemergence, Rate 125 g/ha
  Plant response rating, Cocklebur: 0
[17]; Preemergence, Rate 500 g/ha
  Plant response rating, Corn: 0
[17]; preemergence, Rate 125 g/ha
  Plant response rating, Corn: 0
[18]; Preemergence, Rate 500 g/ha
  Plant response rating, Crabgrass: 100
[18]; preemergence, Rate 125 g/ha
  Plant response rating, Crabgrass: 0
[19]; Preemergence, Rate 500 g/ha
  Plant response rating, Foxtail, Giant: 80
[19]; preemergence, Rate 125 g/ha
  Plant response rating, Foxtail, Giant: 20
[20]; Preemergence, Rate 500 g/ha
  Plant response rating, Lambsquarters: 100
[20]; preemergence, Rate 125 g/ha
  Plant response rating, Lambsquarters: 90
[21]; Preemergence, Rate 500 g/ha
  Plant response rating, Morningglory: 0
[22]; Preemergence, Rate 500 g/ha
  Plant response rating, Pigweed: 100
[23]; Preemergence, Rate 500 g/ha
  Plant response rating, Rice: 0
[24]; Preemergence, Rate 500 g/ha
  Plant response rating, Velvetleaf: 0
[26]
  Plant response rating (0 to 100), Sunflower: 30
[27]
  Plant response rating, Sunflower: 0
